Measurements: the supplement of paper PMC4932681
Counter-ions that a name gives are not always drawn.

Tests used:
Assay in all cases: viability inhibition at highest dose (% inhibition); higher = more growth inhibition
BT-474 Tam1 = conditions: 4-OH-tamoxifen in medium 1 µM; 72 h
In short: (§1)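 Breast cancer cell lines and their resistant derivatives were seeded into 384-well plates holding FO2Baq library drugs at five concentrations spanning a 10 000-fold range. Resistant lines were in medium with 1 μM of the selecting drug. Cells were incubated 72 h at 37 °C, and CellTiter-Glo viability was read on a PHERAstar and normalised to vehicle-only and positive controls. Drug sensitivity score, relative IC50 (curve midpoint) and top-dose inhibition came from logistic dose–response fits (Breeze pipeline).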

BT-474 Tam2 = conditions: 4-OH-tamoxifen in medium 1 µM; 72 h
In short: as §1

BT-474 = conditions: 72 h
In short: as §1

MCF-7 Tam1 = conditions: 4-OH-tamoxifen in medium 1 µM; 72 h
In short: as §1

MCF-7 = conditions: 72 h
In short: as §1

T-47D Tam1 = conditions: 4-OH-tamoxifen in medium 1 µM; 72 h
In short: as §1

T-47D Tam2 = conditions: 4-OH-tamoxifen in medium 1 µM; 72 h
In short: as §1

T-47D = conditions: 72 h
In short: as §1

ZR-75-1 Tam1 = conditions: 4-OH-tamoxifen in medium 1 µM; 72 h
In short: as §1

ZR-75-1 Tam2 = conditions: 4-OH-tamoxifen in medium 1 µM; 72 h
In short: as §1

ZR-75-1 = conditions: 72 h
In short: as §1

SMILES | viability inhibition at highest dose (BT-474 Tam1) | viability inhibition at highest dose (BT-474 Tam2) | viability inhibition at highest dose (BT-474; 4-OH-tamoxifen in medium 0 µM) | viability inhibition at highest dose (BT-474; 4-OH-tamoxifen in medium 1 µM) | viability inhibition at highest dose (MCF-7 Tam1) | viability inhibition at highest dose (MCF-7; 4-OH-tamoxifen in medium 0 µM) | viability inhibition at highest dose (MCF-7; 4-OH-tamoxifen in medium 1 µM) | viability inhibition at highest dose (T-47D Tam1) | viability inhibition at highest dose (T-47D Tam2) | viability inhibition at highest dose (T-47D; 4-OH-tamoxifen in medium 0 µM) | viability inhibition at highest dose (T-47D; 4-OH-tamoxifen in medium 1 µM) | viability inhibition at highest dose (ZR-75-1 Tam1) | viability inhibition at highest dose (ZR-75-1 Tam2) | viability inhibition at highest dose (ZR-75-1; 4-OH-tamoxifen in medium 0 µM) | viability inhibition at highest dose (ZR-75-1; 4-OH-tamoxifen in medium 1 µM)
C=CCN(/C=C1/C(=O)O[C@H](COC)[C@@]2(C)C1=C(O)C(=O)C1=C2[C@H](OC(C)=O)C[C@]2(C)C(=O)CC[C@@H]12)CC=C [Sonolisib (PX-866)] (drug 10000 nM) | -5.08 | -8.14 | -6.97 | -17.3 | -2.1 | -6.01 | 11.3 | 9.15 | 9.95 | -6.68 | 0.837 | 15.2 | 13.3 | 7.54 | 18.1
C1CN1c1nc(N2CC2)nc(N2CC2)n1 [Triethylenemelamine] (drug 10000 nM) | 7.12 | -2.97 | -11.5 | -8.95 | -10.7 | 1.71 | -13.7 | 19.6 | 13 | -11.6 | -10.3 | -3.65 | -10 | -18.1 | -2.81
COc1cc(Nc2ncc3c(n2)-c2ccc(Cl)cc2C(c2c(F)cccc2OC)=NC3)ccc1C(=O)O [Alisertib (MLN8237)] (drug 10000 nM) | 13.6 | -5.31 | 11.6 | 34.7 | 16.2 | 17.2 | 7.64 | 38.9 | 41 | 27.3 | 28.5 | -1.42 | 4.01 | -2.57 | 9.24
O=C(Nc1c[nH]nc1-c1nc2ccc(CN3CCOCC3)cc2[nH]1)NC1CC1 [AT9283] (drug 1000 nM) | 1.94 | 11.4 | -19.7 | -13.2 | -5.75 | -25.8 | -11 | -7.78 | 2.08 | -42.6 | -23.3 | -22.4 | -19.2 | -44.4 | -22.6
C[C@@H]1C[C@H]2[C@@H]3CCC4=CC(=O)C=C[C@]4(C)[C@@]3(F)[C@@H](O)C[C@]2(C)[C@@]1(O)C(=O)CO [Dexamethasone  (Decadron)] (drug 10000 nM) | 3.71 | -0.0711 | -8.58 | -20.8 | -7.5 | -5.26 | 18 | 1.63 | 10.6 | -14.5 | -19 | 3.7 | 12.7 | -4.79 | -6.32
Nc1ccccc1NC(=O)c1ccc(CNc2nccc(-c3cccnc3)n2)cc1 [Mocetotinostat (MGCD0103)] (drug 10000 nM) | 95.4 | 83.4 | 65.7 | 94.3 | 15.4 | 80.1 | 62.7 | 52.9 | 41.7 | 81.2 | 73.8 | 27.6 | 31 | 32.8 | 23.3
Cc1ccc(-c2cc(C(F)(F)F)nn2-c2ccc(S(N)(=O)=O)cc2)cc1 [Celecoxib] (drug 10000 nM) | 12.6 | 4.93 | -0.849 | 1.11 | 4.31 | 15.2 | 5.23 | 2.27 | 18.3 | -3.21 | 5.57 | 4.71 | -10.3 | -12 | 11.6
Cn1c(CCCC(=O)O)nc2cc(N(CCCl)CCCl)ccc21 [Bendamustine (hydrochloride hydrate)] (drug 10000 nM) | -12.7 | -4.38 | -0.115 | -10.7 | -4.92 | 17.8 | -4.09 | 0.785 | -2.82 | -0.126 | -12.1 | -0.263 | 5.86 | -7.06 | -2.1
CCOc1cc2ncc(C#N)c(Nc3ccc(OCc4ccccn4)c(Cl)c3)c2cc1NC(=O)/C=C/CN(C)C [Neratinib] (drug 1000 nM) | 97.4 | 97.1 | 83.2 | 95 | 8.88 | -5.52 | 24.9 | 32.5 | 32.5 | 19 | 1.93 | 2.29 | 9.49 | -13 | 9.01
CCN(CC)CCCC(C)Nc1ccnc2cc(Cl)ccc12 (stereo not given) [Chloroquine] (drug 990000 nM) | 19 | 7.83 | -6.4 | -13.3 | -1.25 | -2.81 | 0.449 | 3.21 | -12.2 | -0.514 | -3.72 | 0.712 | 6.98 | -2.67 | -3.36
CC(C)C[C@H](NC(=O)[C@H](CCc1ccccc1)NC(=O)CN1CCOCC1)C(=O)N[C@@H](Cc1ccccc1)C(=O)N[C@@H](CC(C)C)C(=O)[C@@]1(C)CO1 [Carfilzomib] (drug 1000 nM) | 97.8 | 93.7 | 79.9 | 96.2 | 92.7 | 91.8 | 96.5 | 96.3 | 96.8 | 86.2 | 91.1 | 80.2 | 75.9 | 76.9 | 85.7
CC[C@@H]1C(=O)N(C)c2cnc(Nc3ccc(C(=O)N[C@H]4CC[C@H](N5CCN(CC6CC6)CC5)CC4)cc3OC)nc2N1C(C)C [Volasertib (BI 6727)] (drug 1000 nM) | 26 | 9.62 | 13.2 | 25.5 | 0.498 | 24.2 | 24.7 | 24.6 | 21.4 | 30.8 | -1.17 | 18.7 | 18.7 | 7.01 | 16.1
